The values that follow are results of earlier work, collected in patent US6366801B1, “Pharmaceutically enhanced low-energy radiosurgery” (Sirius Medicine, LLC, priority 1997, dated 2002).

One series concerns lymphocytes. Conditions: iodine with low-energy photons, lymphocytes (Santos Mello et al.).
A further series relates to brain tumors. The settings on record: low-energy x-rays and iodine, brain tumors in rabbits (Iwamoto et al.).
A further series has as its system cells in vitro. Conditions: iodine concentration of 50 mg/ml, cells in vitro (Dawson et al.).

Consider `II` [iodine], for which the dose enhancement result is listed as “up to 3” in the series with lymphocytes and “about 30%” with brain tumors. In the series with cells in vitro, the “effect on radiation damage to cells” value is “radiation enhancement of cell damage”.
